Assay results published in PMC9977294, “A parasitic fungus employs mutated eIF4A to survive on rocaglate-synthesizing Aglaia plants” (eLife, 2023).
“And” between values parts separate entries of the source, which are not always exact repeats. Equal entries are not always repeated.

Experiments:
[1] = biological target: T1, H. sapiens eIF4A1 Phe163Gly (Homo sapiens, UniProt P60842, F163G); test: In vitro translation assay in reconstituted system with human factors; format: biochemical; conditions: for translation of reporter mRNA, Mean / translation of reporter mRNA, replicates: CAA repeats reporter, value at 0 μM RocA = 1
T1 construct: His tag (N); made in house; host or cells: E. coli BL21 Star (DE3)
Description: The DNA fragments PCR-amplified from psiCHECK2−7×AGAGAG motifs or psiCHECK2-CAA repeats ([Iwasaki et al., 2016]) were used as a template for in vitro transcription with a T7-Scribe Standard RNA IVT Kit ([…]). RNA was capped and poly(A) tailed with a ScriptCap m^7G Capping System, a ScriptCap 2′-O-Methyltransferase Kit, and an A-Plus Poly(A) Polymerase Tailing Kit ([…]).
The reconstitution system for human translation has been described previously ([Iwasaki et al., 2019]; [Machida et al., 2018]; [Yokoyama et al., 2019]). The in vitro translation reaction and luciferase assay were performed as previously described ([Iwasaki et al., 2019]) with some modifications. The final concentrations of mRNA and the eIF4A protein were 60 ng/µl and 2.16 µM, respectively. The translation mixture was incubated for 2.5 hr. The fluorescence signal was detected using the Renilla-Glo Luciferase Assay System (Promega) and measured in an EnVision 2104 plate reader (PerkinElmer).

[2] = biological target: T1, H. sapiens eIF4A1 Phe163Gly; test: Fluorescence polarization assay, FAM-labeled [AG]10 RNA and recombinant eIF4A; format: binding
[3] = biological target: T2, H. sapiens eIF4A1 Phe163His (Homo sapiens, UniProt P60842, F163H); test: as above; format: binding; conditions: ADP + Pi, RocA 50 µM
T2 construct: His tag (N); made in house; host or cells: E. coli BL21 Star (DE3)

[4] = [AG]10, ADP + Pi, RocA 50 µM, protein 0.01 μM
[5] = [AG]10, ADP + Pi, RocA 50 µM, protein 0.05 μM
[6] = [AG]10, ADP + Pi, RocA 50 µM, protein 0.075 μM
[7] = [AG]10, ADP + Pi, RocA 50 µM, protein 0.1 μM
[8] = [AG]10, ADP + Pi, RocA 50 µM, protein 0.5 μM
[9] = [AG]10, ADP + Pi, RocA 50 µM, protein 0.75 μM
[10] = [AG]10, ADP + Pi, RocA 50 µM, protein 1 μM
[11] = [AG]10, ADP + Pi, RocA 50 µM, protein 5 μM
[12] = [AG]10, ADP + Pi, RocA 50 µM, protein 7.5 μM
[13] = [AG]10, ADP + Pi, RocA 50 µM, protein 10 μM
[14] = [AG]10, ADP + Pi, RocA 50 µM, protein 25 μM
[15] = [AG]10, ADP + Pi, RocA 50 µM, protein 50 μM
[16] = [AG]10 RNA, AMP-PNP, RocA, protein concentration 0.01 μM
[17] = [AG]10 RNA, AMP-PNP, RocA, protein concentration 0.05 μM
[18] = [AG]10 RNA, AMP-PNP, RocA, protein concentration 0.075 μM
[19] = [AG]10 RNA, AMP-PNP, RocA, protein concentration 0.1 μM
[20] = [AG]10 RNA, AMP-PNP, RocA, protein concentration 0.5 μM
[21] = [AG]10 RNA, AMP-PNP, RocA, protein concentration 0.75 μM
[22] = [AG]10 RNA, AMP-PNP, RocA, protein concentration 1 μM
[23] = [AG]10 RNA, AMP-PNP, RocA, protein concentration 5 μM
[24] = [AG]10 RNA, AMP-PNP, RocA, protein concentration 7.5 μM
[25] = [AG]10 RNA, AMP-PNP, RocA, protein concentration 10 μM
[26] = [AG]10 RNA, AMP-PNP, RocA, protein concentration 25 μM
[27] = [AG]10 RNA, AMP-PNP, RocA, protein concentration 50 μM

T1 sequence (P60842 whole entry F163G): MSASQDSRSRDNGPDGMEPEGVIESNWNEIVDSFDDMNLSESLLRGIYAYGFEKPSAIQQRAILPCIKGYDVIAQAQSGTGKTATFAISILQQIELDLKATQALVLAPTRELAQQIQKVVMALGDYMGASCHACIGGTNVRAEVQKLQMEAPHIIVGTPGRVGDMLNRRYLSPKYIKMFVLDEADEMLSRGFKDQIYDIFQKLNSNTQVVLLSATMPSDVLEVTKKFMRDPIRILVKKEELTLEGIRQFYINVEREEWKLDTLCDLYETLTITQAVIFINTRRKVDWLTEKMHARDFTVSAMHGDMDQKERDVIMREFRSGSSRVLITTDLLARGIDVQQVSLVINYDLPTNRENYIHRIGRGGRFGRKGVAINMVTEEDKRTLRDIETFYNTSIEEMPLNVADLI
T2 sequence (P60842 whole entry F163H): as the sequence (P60842 whole entry F163G) above, with G163H counted along it

COc1ccc([C@@]23Oc4cc(OC)cc(OC)c4[C@]2(O)[C@H](O)[C@H](C(=O)N(C)C)[C@H]3c2ccccc2)cc1 [RocA, rocaglamide A]
translation of reporter mRNA, Mean ([1]; RocA 0.1 μM): 1.06 | translation of reporter mRNA, replicates ([1]; RocA 0.1 μM): 0.8871 and 1.301 and 0.9923 | translation of reporter mRNA, Mean ([1]; RocA 1 μM): 1.42 | translation of reporter mRNA, replicates ([1]; RocA 1 μM): 0.8083 and 2.551 and 0.9008 | translation of reporter mRNA, Mean ([1]; RocA 10 μM): 0.918 | translation of reporter mRNA, replicates ([1]; RocA 10 μM): 0.6256 and 1.131 and 0.9971 | translation of reporter mRNA ([1]; polypurine motif reporter mRNA, Figure 3A): prevented the translation repression mediated by RocA | fluorescence polarization, Mean [2, 4]: 0.04918 | fluorescence polarization, replicates [2, 4]: 0.1421 and 0.05191 and -0.04645 | fluorescence polarization, Mean [2, 5]: 0.02732 | fluorescence polarization, replicates [2, 5]: 0.2322 and -0.03005 and -0.1202 | fluorescence polarization, Mean [2, 6]: -0.02459 | fluorescence polarization, replicates [2, 6]: 0.06011 and -0.02186 and -0.112 | fluorescence polarization, Mean [2, 7]: -0.01913 | fluorescence polarization, replicates [2, 7]: -0.03005 and -0.01366 (2×) | fluorescence polarization, Mean [2, 8]: -0.02459 | fluorescence polarization, replicates [2, 8]: 0.0765 and 0.04372 and -0.194 | fluorescence polarization, Mean [2, 9]: -0.02459 | fluorescence polarization, replicates [2, 9]: 0.1831 and -0.05465 and -0.2022 | fluorescence polarization, Mean [2, 10]: -0.01913 | fluorescence polarization, replicates [2, 10]: 0.1093 and -0.06284 and -0.1038 | fluorescence polarization, Mean [2, 11]: 0.224 | fluorescence polarization, replicates [2, 11]: 0.3634 and 0.224 and 0.0847 | fluorescence polarization, Mean [2, 12]: 0.1721 | fluorescence polarization, replicates [2, 12]: 0.3798 and 0.03552 and 0.1011 | fluorescence polarization, Mean [2, 13]: 0.276 | fluorescence polarization, replicates [2, 13]: 0.3962 and 0.1585 and 0.2732 | fluorescence polarization, Mean [2, 14]: 0.5137 | fluorescence polarization, replicates [2, 14]: 0.7404 and 0.5273 and 0.2732 | fluorescence polarization, Mean [2, 15]: 0.582 | fluorescence polarization, replicates [2, 15]: 0.7568 and 0.5437 and 0.4454 | Fluorescence polarization, Replicate 1-3 [2, 16]: 0.04918 and -0.08197 and -0.1475 | fluorescence polarization, Mean [2, 16]: -0.06011 | Fluorescence polarization, Replicate 1-3 [2, 17]: 0.1311 and -0.09016 and -0.09836 | fluorescence polarization, Mean [2, 17]: -0.01913 | Fluorescence polarization, Replicate 1-3 [2, 18]: -0.04098 and -0.1393 and -0.09836 | fluorescence polarization, Mean [2, 18]: -0.0929 | Fluorescence polarization, Replicate 1-3 [2, 19]: 0.07377 and 0.02459 and -0.06557 | fluorescence polarization, Mean [2, 19]: 0.01093 | Fluorescence polarization, Replicate 1-3 [2, 20]: 0.5984 and 0.4918 and 0.4016 | fluorescence polarization, Mean [2, 20]: 0.4973 | Fluorescence polarization, Replicate 1-3 [2, 21]: 0.4508 and 0.2049 and 0.1148 | fluorescence polarization, Mean [2, 21]: 0.2568 | Fluorescence polarization, Replicate 1-3 [2, 22]: 0.5082 and 0.3689 (2×) | fluorescence polarization, Mean [2, 22]: 0.4153 | Fluorescence polarization, Replicate 1-3 [2, 23]: 0.7131 and 0.7705 and 0.7541 | fluorescence polarization, Mean [2, 23]: 0.7459 | Fluorescence polarization, Replicate 1-3 [2, 24]: 0.6393 and 0.6721 and 0.5902 | fluorescence polarization, Mean [2, 24]: 0.6339 | Fluorescence polarization, Replicate 1-3 [2, 25]: 0.7951 and 0.7459 and 0.7705 | fluorescence polarization, Mean [2, 25]: 0.7705 | Fluorescence polarization, Replicate 1-3 [2, 26]: 0.7623 and 0.7213 and 0.6639 | fluorescence polarization, Mean [2, 26]: 0.7158 | Fluorescence polarization, Replicate 1-3 [2, 27]: 0.9016 and 0.7623 and 0.7787 | fluorescence polarization, Mean [2, 27]: 0.8142 | fluorescence polarization, Mean ([3]; protein 0.01 μM): -0.03005 | fluorescence polarization, replicates ([3]; protein 0.01 μM): 0.07104 and -0.06011 and -0.1011 | fluorescence polarization, Mean ([3]; protein 0.05 μM): -0.008197 | fluorescence polarization, replicates ([3]; protein 0.05 μM): 0.03005 and 0.005464 and -0.06011
